Test results reported in PubChem BioAssay AID1963847 (Molecular Pharmacology Branch, DTP, NCI, 2024).

Test system: 415267-285-R-J2-PDC complex spheroid viability
Test: Anticancer human tumor 415267-285-R-J2-PDC patient-derived breast carcinoma cell line growth inhibition [POLQ]
Conditions: for IC50: curve of first compound; for viability, T/C: stronger effect = lower value
Summary of the method: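 PDC + HUVEC + MSC complex spheroids; POLQ inhibitors ± partner drugs; top conc. at/near clinical Cmax, else 10 microM (SN-38 1 microM), half-log dilutions; 37 degrees C, 5% CO2.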

[1] = second compound 0.0316 µM, first compound 0.0316 µM
[2] = second compound 0.0316 µM, first compound 0.1 µM
[3] = second compound 0.0316 µM, first compound 0.316 µM
[4] = second compound 0.0316 µM, first compound 1 µM
[5] = second compound 0.0316 µM, first compound 3.16 µM
[6] = second compound 0.0316 µM, first compound 10 µM
[7] = second compound 0.1 µM, first compound 0.0316 µM
[8] = second compound 0.1 µM, first compound 0.1 µM
[9] = second compound 0.1 µM, first compound 0.316 µM
[10] = second compound 0.1 µM, first compound 1 µM
[11] = second compound 0.1 µM, first compound 3.16 µM
[12] = second compound 0.1 µM, first compound 10 µM
[13] = second compound 0.316 µM, first compound 0.0316 µM
[14] = second compound 0.316 µM, first compound 0.1 µM
[15] = second compound 0.316 µM, first compound 0.316 µM
[16] = second compound 0.316 µM, first compound 1 µM
[17] = second compound 0.316 µM, first compound 3.16 µM
[18] = second compound 0.316 µM, first compound 10 µM
[19] = second compound 1 µM, first compound 0.0316 µM
[20] = second compound 1 µM, first compound 0.1 µM
[21] = second compound 1 µM, first compound 0.316 µM
[22] = second compound 1 µM, first compound 1 µM
[23] = second compound 1 µM, first compound 3.16 µM
[24] = second compound 1 µM, first compound 10 µM
[25] = second compound 3.16 µM, first compound 0.0316 µM
[26] = second compound 3.16 µM, first compound 0.1 µM
[27] = second compound 3.16 µM, first compound 0.316 µM
[28] = second compound 3.16 µM, first compound 1 µM
[29] = second compound 3.16 µM, first compound 3.16 µM
[30] = second compound 3.16 µM, first compound 10 µM
[31] = second compound 10 µM, first compound 0.0316 µM
[32] = second compound 10 µM, first compound 0.1 µM
[33] = second compound 10 µM, first compound 0.316 µM
[34] = second compound 10 µM, first compound 1 µM
[35] = second compound 10 µM, first compound 3.16 µM
[36] = second compound 10 µM, first compound 10 µM
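Further: spheroids exposed to compounds for one week before readout.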
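Wherever viability, T/C is given: luminescence used as stand-in measure of viable cells; 100% = DMSO vehicle control viability.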

COc1ccc([C@@H](O)c2cc(-c3ncnc4cc(N5CCOCC5)ccc34)c(F)cc2Cl)nn1 + Cc1cccc(N(C)C(=O)C2C(O)CCN2c2nc(C)cc(C(F)(F)F)c2C#N)c1
IC50 (second compound 0.0316 µM): 7.65 µM
IC50 (second compound 0.1 µM): 7.73 µM
IC50 (second compound 0.316 µM): 7.44 µM
IC50 (second compound 1 µM): 7.62 µM
IC50 (second compound 3.16 µM): 7.22 µM
IC50 (second compound 10 µM): 4.74 µM
viability, T/C [1]: 89.5%
viability, T/C [2]: 103%
viability, T/C [3]: 98.9%
viability, T/C [4]: 102%
viability, T/C [5]: 74%
viability, T/C [6]: 42.7%
viability, T/C [7]: 93.9%
viability, T/C [8]: 102%
viability, T/C [9]: 110%
viability, T/C [10]: 91%
viability, T/C [11]: 82.1%
viability, T/C [12]: 40.9%
viability, T/C [13]: 99.3%
viability, T/C [14]: 102%
viability, T/C [15]: 98.5%
viability, T/C [16]: 100%
viability, T/C [17]: 81.3%
viability, T/C [18]: 39%
viability, T/C [19]: 99%
viability, T/C [20]: 91.3%
viability, T/C [21]: 92.7%
viability, T/C [22]: 93.2%
viability, T/C [23]: 69.4%
viability, T/C [24]: 44%
viability, T/C [25]: 93.1%
viability, T/C [26]: 100%
viability, T/C [27]: 98%
viability, T/C [28]: 88.9%
viability, T/C [29]: 75.5%
viability, T/C [30]: 39.9%
viability, T/C [31]: 101%
viability, T/C [32]: 99.3%
viability, T/C [33]: 94.5%
viability, T/C [34]: 86%
viability, T/C [35]: 59.7%
viability, T/C [36]: 31.6%

CNCc1ccc(-c2[nH]c3cc(F)cc4c3c2CCNC4=O)cc1 + Cc1cccc(N(C)C(=O)C2C(O)CCN2c2nc(C)cc(C(F)(F)F)c2C#N)c1
IC50 (second compound 0.0316 µM): > 10 µM
IC50 (second compound 0.1 µM): > 10 µM
IC50 (second compound 0.316 µM): > 10 µM
IC50 (second compound 1 µM): > 10 µM
IC50 (second compound 3.16 µM): > 10 µM
IC50 (second compound 10 µM): > 10 µM
viability, T/C [1]: 94.8%
viability, T/C [2]: 97.2%
viability, T/C [3]: 106%
viability, T/C [4]: 116%
viability, T/C [5]: 94.5%
viability, T/C [6]: 110%
viability, T/C [7]: 99.8%
viability, T/C [8]: 86.7%
viability, T/C [9]: 102%
viability, T/C [10]: 96.3%
viability, T/C [11]: 105%
viability, T/C [12]: 105%
viability, T/C [13]: 97.5%
viability, T/C [14]: 103%
viability, T/C [15]: 101%
viability, T/C [16]: 101%
viability, T/C [17]: 102%
viability, T/C [18]: 99.6%
viability, T/C [19]: 97.8%
viability, T/C [20]: 96.3%
viability, T/C [21]: 93.7%
viability, T/C [22]: 100%
viability, T/C [23]: 104%
viability, T/C [24]: 84.3%
viability, T/C [25]: 94%
viability, T/C [26]: 100%
viability, T/C [27]: 100%
viability, T/C [28]: 98%
viability, T/C [29]: 97.8%
viability, T/C [30]: 94.6%
viability, T/C [31]: 98.4%
viability, T/C [32]: 90.2%
viability, T/C [33]: 96.3%
viability, T/C [34]: 95.1%
viability, T/C [35]: 96.9%
viability, T/C [36]: 88.9%

CCc1cc2c(N3CCc4c(cc(Cn5ccnc5)cc4-c4cn(C)nc4C(F)(F)F)C3=O)ccnc2c(OC)n1 + Nc1ccc(C#CCN(C(=O)Cc2ncc(C(F)(F)F)cc2C(F)(F)F)c2ccc(F)cc2)nn1
IC50 (second compound 0.0316 µM): > 10 µM
IC50 (second compound 0.1 µM): > 10 µM
IC50 (second compound 0.316 µM): > 10 µM
IC50 (second compound 1 µM): > 10 µM
IC50 (second compound 3.16 µM): > 10 µM
IC50 (second compound 10 µM): > 10 µM
viability, T/C [1]: 95.8%
viability, T/C [2]: 92.1%
viability, T/C [3]: 78.2%
viability, T/C [4]: 87.2%
viability, T/C [5]: 89.7%
viability, T/C [6]: 70.8%
viability, T/C [7]: 94.3%
viability, T/C [8]: 88.4%
viability, T/C [9]: 79.6%
viability, T/C [10]: 85.3%
viability, T/C [11]: 92.9%
viability, T/C [12]: 68.1%
viability, T/C [13]: 94.2%
viability, T/C [14]: 90.7%
viability, T/C [15]: 75.7%
viability, T/C [16]: 84.1%
viability, T/C [17]: 86.4%
viability, T/C [18]: 71.4%
viability, T/C [19]: 85.9%
viability, T/C [20]: 96%
viability, T/C [21]: 81.8%
viability, T/C [22]: 82.1%
viability, T/C [23]: 87.8%
viability, T/C [24]: 70.7%
viability, T/C [25]: 90.4%
viability, T/C [26]: 87.3%
viability, T/C [27]: 78.8%
viability, T/C [28]: 88.8%
viability, T/C [29]: 78.2%
viability, T/C [30]: 73.3%
viability, T/C [31]: 94.9%
viability, T/C [32]: 83.8%
viability, T/C [33]: 90.4%
viability, T/C [34]: 87.9%
viability, T/C [35]: 77.5%
viability, T/C [36]: 68.2%
